We go through three substances from paper PMC4115230, “Lipid–Protein Nanodiscs Offer New Perspectives for Structural and Functional Studies of Water-Soluble Membrane-Active Peptides” (Acta Naturae, 2014).

“Also recorded” adds a separate entry of the source. Where no end group is shown, it is not given here.

Series [1] concerns nanodisc surface or MSP molecule. Description: Langmuir analysis of VSTx1 binding to sites on nanodisc surface or MSP. Particulars: Langmuir isotherm (eq. 2); range over LPN/POPC, LPN/POPC/DOPG and MSP. Here is the method:
(§1) To measure the isotherms of the toxins binding to LPNs and MSP molecules, the VSTx1 and NT II samples ([…], 10 mM Tris-Ac, pH 7.0) were titrated with solutions of nanodiscs (70 μM) of various lipid compositions or with a MSP solution (0.7 mM). The 1D 1H-NMR spectrum was acquired at each point. A data analysis was performed assuming that the intensity of the observed NMR signals of a peptide is proportional to its equilibrium concentration in solution ([P]free). The binding curves were fitted either to the partition equilibrium equation (1) or to the Langmuir isotherm equation (2), taking into account the dilution of the initial samples upon titration:
(§2) where [LPN/lipid] is the LPN concentration (assuming that one nanodisc contains two MSP molecules) or the lipid concentration (assuming that one nanodisc contains 150 lipid molecules), [P]boundis the concentration of a peptide bound to LPN ([P]0 = [P]free+ [P]bound), Kpis the partition coefficient, n is the number of binding sites for a peptide on the nanodisc surface, and Knis the affinity constant of the peptide to the binding site on the nanodisc surface.

The test system of series [2] is MSP (44-243 fragment of human apolipoprotein A1). Briefly: NMR titration binding isotherm with MSP. Here is the method: (§3) The recombinant 44–243 fragment of the human apolipoprotein A1 with a N-terminal sequence of six His residues was used as an MSP protein. The purified MSP protein, obtained as described in [20], was mixed at a molar ratio of 1 : 75 with lipids in the presence of a detergent, sodium cholate (2 : 1 cholate/lipids molar ratio), and the mixture was incubated at 4 °C for 3 h. When using saturated lipids (DLPC, DLPG), the reaction temperature was kept not lower than 25 °C. Spontaneous LPN assembly was initiated by detergent sorption to the Bio-Beads™ resin (Bio-Rad, USA) for 1.5 h. Purification of the nanodiscs was performed on a Ni^2+ Sepharose 6 Fast Flow resin (GE Healthcare, USA) equilibrated with buffer A (20 mM Tris-HCl, 0.5 M NaCl, 1 mM NaN3, pH 8.0). After loading the reaction mixture, the resin was washed with a fivefold volume of buffer A. LPNs were eluted with buffer A containing 100 mM imidazole. The MSP concentration was determined spectrophotometrically by absorbance at λ = 280 nm. The LPN concentration was determined by assuming that each nanodisc contained two MSP molecules.
(§4) NMR spectra were acquired at 40–45 °C on AVANCE -700 and AVANCE -III-800 spectrometers (Bruker, Germany) equipped with cryogenically cooled triple-resonance probes at the proton resonance frequencies of 700 and 800 MHz, respectively.
as §1, §2

The subject of another series is LPN/POPC/DOPG (3 : 1). Briefly: NMR titration binding isotherm with LPN/POPC/DOPG (3 : 1) nanodiscs. Here is the method: as §3, §4, §1, §2
For series [3] the following is noted: buffer containing 150 mM KCl; ref [3]; cited from earlier work. An excerpt: These differences in the toxin affinity may b ...
In the next series the test system is LPN/POPC. Description: NMR titration binding isotherm with LPN/POPC nanodiscs. Here is the method: as §3, §4, §1, §2
For series [4] the following is noted: ref [31]; cited from earlier work. An excerpt:
(§5) The VSTx1 toxin is a small β-structured peptide stabilized by three disulfide bonds which form a “cysteine knot” (Fig. 1). […] According to current data, VSTx1 inhibits the voltage-dependent activation of K^+ channels and uses “membrane catalysis” mechanisms when forming a complex with the voltage-sensing domain of the channel.

For the next series, the system named is K^+ channels. Particulars: ref [3]; cited from earlier work.
Source text: as §5

Series [5] deals with LPNs. Briefly: Gel filtration analysis of LPNs after peptide addition (nanodisc integrity, particle size). It is filed as physicochemical. Conditions: for nanodisc disruption: 1 mM EDTA, pH 7.4, 280 nm. Here is the method: was carried out on a Superdex-200 resin using a Tricorn 5/200 column (GE Healthcare, Sweden) in buffer (10 mM Tris-HCl, 0.1 M NaCl, 1 mM EDTA, 1 mM NaN3, pH 7.4). Thyroglobulin (669 kDa, Stokes radius RH = 8.5 nm), ferritin (440 kDa, RH = 6.1 nm), catalase (232 kDa, RH = 5.22 nm), aldolase (158 kDa, RH = 4.81 nm) BSA (67 kDa, RH = 3.55 nm), and ovalbumin (43 kDa, RH = 3.05 nm) were used as calibration proteins. The flow rate through the column was 0.3 ml/min. Detection was performed at 280 nm. The particle size was determined from the elution volume vs the lgRH calibration curve. All the particle size (diameter) values provided below correspond to twice RH values. ;
For orientation: SEC sorts molecules by how far they enter the pores of the column.

The test system of series [6] is LPNs. Conditions: ref [12], [15], [20]; cited from earlier work. An excerpt:
(§6) Given that the mechanisms associated with the change in the local curvature of the lipid bilayer (“toroidal” pore formation, bilayer micellization) underlie the action of the overwhelming majority of water- soluble cationic AMPs, we can assume that many of these molecules will have a destructive effect on LPNs. Thus, nanodiscs are probably not suited as a medium for studying these peptides. It should be noted that there are other classes of channel- and pore-forming biomolecules that can be studied in LPN-based media.

For series [7] the following is noted: ref [12], [15], [20]; cited from earlier work.
Source text: as §6

The conditions of series [8]: CD spectroscopy; ref [18], [21]; cited from earlier work.
The conditions of series [9]: cited from earlier work. An excerpt: The cationic AMP, Ar2, contains mainly positively charged and hydrophobic residues and has a β-hairpin structure in water, which is stabilized with one disulfide bond (Fig. 1). […] As expected, the β-hairpins of individual peptides within the pore have a transmembrane orientation, so that the ...
Series [10] has as its system LPNs. Briefly: Opalescence/opacity of LPN solutions on Ar2 addition. It is filed as physicochemical. Here is the method: During that study, an aqueous Ar2 solution was added to nanodisc samples. […] An analysis of the sample supernatants by gel filtration confirmed this assumption. […] A similar process is known as high-density lipoprotein remodeling, which can occur both in vitro and in vivo upon the interaction of lipoprotein particles with lipophilic plasma proteins. Previously, nanodisc fusion had been observed in cell-free protein biosynthesis systems with the cotranslational incorporation of membrane proteins into LPNs containing unsaturated lipids. The spontaneous LPN fusion in vitro proceeds very slowly, but it could be considerably accelerated under denaturing conditions.

The conditions of series [11]: CD spectroscopy; ref [18], [21]; cited from earlier work. The source holds these as a separate data set.
Series [12] can be described thus: Mean Kyte-Doolittle hydrophobicity index. Particulars: among the three studied peptides. An excerpt: The problems related to the application of LPNbased membrane mimetic media in structural and biophysical studies of water-soluble MPs have yet to be studied. It should be noted that this is far from being a trivial matter, since LPNs, unlike vesicles, bicelles, and micelles, contain an additional component, MSP, which is an anionic protein (charge of –6). In this paper, the interaction of water-soluble MPs with LPNs was studied using three model cationic β-structured peptides (Fig. 1), which have different physicochemical properties and represent three classes of membrane-active compounds. The antimicrobial peptide arenicin-2 (Ar2, 21 AA, 2772 Da, charge of +6, mean Kyte-Doolittle hydrophobicity index is –0.06, The maximum and minimum values of the Kyte-Doolittle hydrophobicity index are +4.5 and –4.5 for poly-Ile and poly-Arg sequences, respectively.) from coelomocytes of the polychaete lugworm Arenicola marina interacts selectively with membranes containing negatively charged lipid molecules and forms oligomeric pores in them. The VSTx1 toxin (34 AA, 4010 Da, charge of +3, hydrophobicity index is –0.27) from Grammostola spatulata spider venom uses the “membrane catalysis” mechanism to interact with the voltage-sensitive domains of K+-channels localized in the cell membrane, and it lacks pore-forming ability. […]

Setting [13] is: Langmuir isotherm (eq. 2), 10 mM Tris-Ac, pH 7.0, 40–45 °C.
The mark [14] stands for this setting: maximum ("up to"), Langmuir isotherm.
[15] abbreviates: partition equilibrium (eq. 1), lipid concentration as non-aqueous phase (150 lipids per nanodisc), 10 mM Tris-Ac, pH 7.0, 40–45 °C, no added salt.
Setting [16] is: Superdex-200, 10 mM Tris-HCl, 0.1 M NaCl.

As for “VSTx1 (GSECGKFMWKCKNSNDCCKDLVCSSRWKWCVLASPF; not fully specified; ends and bridges not checked)”, the “Kn, affinity to the sites on the nanodisc surface or on a MSP molecule” value in [1] was in the range of 50000 to 130000 M⁻¹. Further, in [2] (MSP without lipids, 1D 1H-NMR titration, 10 mM Tris-Ac, pH 7.0), the “interaction with MSP” value is reported as “weakly interacts; also recorded: weak interaction”. In series [2] (MSP×2, no lipids, Langmuir isotherm (eq. 2), 10 mM Tris-Ac, pH 7.0, 40–45 °C), the “Kn, affinity constant of the peptide to the binding site” value was 0.05 ± 0.02 ×10^6·M^-1. The “Kp(LPN, MSP×2), partition coefficient” value was 0.10 ± 0.01 ×10^6·M^-1 in [2] (MSP×2, no lipids, partition equilibrium (eq. 1), titration with 0.7 mM MSP, 10 mM Tris-Ac, pH 7.0, 40–45 °C); 2.68 ± 0.24 ×10^6·M^-1 in the series with LPN/POPC/DOPG (3 : 1) (partition equilibrium (eq. 1), LPN concentration as non-aqueous phase, 10 mM Tris-Ac, pH 7.0, 40–45 °C, no added salt); 0.39 ± 0.02 ×10^6·M^-1 in the series on LPN/POPC (partition equilibrium (eq. 1), LPN concentration as non-aqueous phase, 1D 1H-NMR titration, 10 mM Tris-Ac, pH 7.0, 40–45 °C, no added salt). In series [2] (in the absence of lipids, each MSP molecule), the “VSTx1 molecules bound per MSP molecule” value is “up to 1.6 VSTx1 molecules”. For the same substance, the “Kn, affinity constant of the peptide to the binding site on the LPN surface” value is 0.13 ± 0.02 ×10^6·M^-1 with LPN/POPC/DOPG (3 : 1) (setting [13]) and 0.06 ± 0.01 ×10^6·M^-1 in the series on LPN/POPC (setting [13]). For the same substance, the “n, number of binding sites on the LPN surface” value was found to be 34.5 ± 3.9 with LPN/POPC/DOPG (3 : 1) (setting [13]) and 9.6 ± 1.5 in the series on LPN/POPC (setting [13]). For the same substance, the “binding to LPNs” value is on record as “effectively binds; also recorded: interacts effectively with LPNs containing anionic lipids” in the series on LPN/POPC/DOPG (3 : 1) (POPC/DOPG, 3 : 1, 1D 1H-NMR titration, 10 mM Tris-Ac, pH 7.0) and “lower affinity; also recorded: interacts less efficiently” in the series on LPN/POPC (POPC, 1D 1H-NMR titration, 10 mM Tris-Ac, pH 7.0). In the series with LPN/POPC/DOPG (3 : 1) (at ~ 35 binding sites per nanodisc), the “lipid molecules per toxin molecule” value was ~ 4 lipid molecules per toxin molecule. In addition, in the series with LPN/POPC/DOPG (3 : 1) (setting [14]), the “number of binding sites with negatively charged lipids added” value is ~ 35. The “Kp(Lipids), partition coefficient” value in the series on LPN/POPC/DOPG (3 : 1) (setting [15]) was 17.8 ± 1.6 ×10^3·M^-1; in the series with LPN/POPC (setting [15]), 2.6 ± 0.2 ×10^3·M^-1. Also, the “Kp, partition coefficient, vesicles of POPE/POPG (3 : 1)” value in series [3] is listed as ~ 2 × 10^3 × 10^3 M^-1. The “toxin molecules bound per nanodisc containing POPC (~ 150 molecules)” value with LPN/POPC (setting [14]) is ~ 10 toxin molecules. Moreover, the “affinity for interface of phospholipid membranes containing anionic lipids” value in [4] is “considerable affinity”. The “interaction with zwitterionic lipid membranes” value in [4] is listed as “weakly interacts”. The membrane lytic activity entry in series [4] was “no membrane lytic activity”. Besides, the “voltage-dependent activation of K^+ channels” value in the series on K^+ channels is given as “inhibits”. Further, the nanodisc disruption result in the series with LPNs [5] (setting [16]) was “does not cause their disruption; also recorded: no nanodisc disruption”. Further, the “diameter of unbound toxin” value in the series with LPNs [5] (Superdex-200, 10 mM Tris-HCl, 0.1 M NaCl, pH 7.4, diameter = 2 RH) was ~ 2.0 nm.
Consider antiamoebin I, for which, in the series on LPNs [6], the “complex formation with LPNs” value is “formation of stable complexes”. The “upper limit of solubility in water” value in series [7] is 30 µM.
For “arenicin-2 (RWCVYAYVRIRGVLVRYRRCW; not fully specified; ends and bridges not checked; UniProt Q5SC59 182-202, looked up) [Ar2, antimicrobial peptide (21 AA) from coelomocytes of the polychaete lugworm Arenicola marina]”, the “binding to DOPG liposomes” value in series [8] was “binds with high affinity”. Besides, the bilayer micellization result in series [9] (at high concentrations, ref [24]) is reported as “probably causes bilayer micellization”. Moreover, the “interaction with membranes containing negatively charged lipids” value in series [9] (ref [18]) is “interacts selectively with membranes containing negatively charged lipid molecules and creates in them oligomeric pores”. The LPN solution turbidity entry is given as “opaque” with LPNs [10] (equimolar concentrations (Ar2/LPN = 1 : 1) and higher); “strongly opalescent” in the series with LPNs [10] (small peptide concentrations added). In addition, the “interaction with POPC vesicles/liposomes” value in series [11] was “does not interact”. Moreover, the relative hydrophobicity result in series [12] was “most hydrophobic among the studied peptides”. Besides, the “size of large complexes” value in the series on LPNs [5] (Ar2/LPN sample supernatants, Superdex-200, pH 7.4, diameter = 2 RH) is given as ~ 15 nm. Moreover, the nanodisc disruption entry is recorded as “causes nanodisc fusion, accompanied by the release of MSP molecules” in the series on LPNs [5] (setting [16]) and “disintegrates LPNs” with LPNs [5] (Superdex-200, 10 mM Tris-HCl, 0.1 M NaCl, listed as arenicin-2).
